# Experimental data reported in patent publication US20130115618A1, “PHOSPHOLIPID PROFILING AND CANCER” (KATHOLIEKE UNIVERSITEIT LEUVEN, priority 2010, published 2013).
# Key:
# Type in all cases: cell-based
# LNCaP cells [1] = experiment: Cell death assay (trypan blue dye exclusion)
# Excerpt: At the indicated time after exposure to soraphen and/or other compounds, the adherent and floating cells were collected by trypsinization and centrifugation and both cell populations were combined.
# LNCaP cells [2] = experiment: Lipid peroxidation product assay
# Experimental: Equal amounts of cells were scraped in ice-cold PBS, kept on ice for 15 min, and then sonicated (10 bursts). After centrifugation at 3,000 g for 10 min, the supernatants were analyzed using a lipid peroxidation assay kit (Oxford Biomedical Research, Oxford, Mich.) that quantifies the amount of malondialdehydes and 4-hydroxyalkenals, which are generated from fatty acid peroxide decomposition.
# LNCaP cells [3] = experiment: Doxorubicin accumulation (fluorescence microscopy and fluorimetry); settings: soraphen 100 nM 72 hr, doxorubicin 10 μM 30 min
# Experimental: To visualize the intracellular doxorubicin accumulation, doxorubicin was added at a final concentration of 10 μM. After 30 min, the cells were analyzed using a fluorescence microscope (515 nm longpass emission filter) and the LIDA software (Leica Microsystems GmbH).
# To measure doxorubicin accumulation fluorimetrically, cells were exposed to 10 μM of doxorubicin for 30 min, washed in PBS, lysed in 0.3 M HCl in 50% ethanol (v:v), and centrifuged at 700 g for 5 min. The fluorescence of doxorubicin was measured at an excitation wavelength of 490 nm and an emission wavelength of 580 nm. Where indicated, media were supplemented with palmitic acid.
# [4] = system: CD36-positive cells (COS-7 transfected with pCD36); experiment: CD36-binding assay
# Experimental: LNCaP cells were cultured in the presence or absence of soraphen and/or palmitic acid for 72 hr. The cells were exposed to H2O2 (300 μM) for 30 min. Cells were trypsinized and labeled with Cell Tracker Dye Orange CMRA (C34551). The labeled LNCaP cells (1.5×10^5) were subsequently layered over a monolayer of COS-7 cells, which were cultured on glass coverslips and transfected with a CD36-encoding construct (pCD36) or the corresponding empty vector (pEF-BOS) (both kindly provided by R. Thorne, University of Newcastle, Australia). Cells were co-cultured in 1 ml of RPMI medium for 1 hr at 37° C. After extensive washing, the cultures were fixed and imaged. The fluorescence signal of the CellTracker Dye was measured using Adobe Photoshop software (San Jose, Calif.).
# [5] = system: fatty acid synthesis in LNCaP cells; experiment: 2-14C-acetate incorporation assay and TLC analysis; settings: soraphen 24 hours, 2-14C-acetate last 4 hours
# Experimental: LNCaP cells were treated with soraphen or vehicle (ethanol) for 24 hours. The last 4 hours, 2-^14C-labeled acetate (57 mCi/mmol; 2 μCi/dish; Amersham International, Aylesbury, UK) was added to the culture medium. Lipids were extracted according to a modified Bligh-Dyer method as previously described (De Schrijver et al., 2003). To analyze the incorporation of 2-^14C-acetate into different lipid classes, TLC analysis was performed and the lipids were exposed to a PhosphorImager screen for quantification (Molecular Dynamics, Sunnyvale, Calif.), as previously described (De Schrijver et al., 2003).
# LNCaP cells [6] = experiment: Doxorubicin flip-flop rate (NBD-PE quenching); settings: soraphen 100 nM 72 hr, doxorubicin 10 μM, similar with verapamil 100 μM
# Experimental: To measure the flip-flop rate of doxorubicin, cells were treated with soraphen or vehicle for 72 hr. During the last 24 hr of treatment, 10 μM of NBD-phosphatidylethanolamine (NBD-PE; Invitrogen) was added. Verapamil was added at a concentration of 100 μM 1 hr prior to harvesting the cells by trypsinization. The doxorubicin flip-flop rate across the plasma membrane was measured as the reduction in fluorescence of NBD due to quenching of NBD-PE by doxorubicin (Regev et al., 2005) (See Supplemental Methods for details).
# LNCaP cells [7] = experiment: Analysis of intact phospholipid species by ESI-MS/MS; settings: soraphen 100 nM, 72 hr, versus vehicle
# Experimental: To prepare lipid extracts for ESI-MS/MS analysis, the tissue or cells were homogenized in 1.6 ml of 0.1 N HCl:CH3OH 1:1 (v/v). CHCl3 (0.8 ml) and 200 μg/ml of the anti-oxidant 2,6-di-tert-butyl-4-methylphenol (Sigma) were added (Milne et al., 2006). After addition of the lipid standards, the organic fractions were collected by centrifugation at 200 g for 5 min. Samples were evaporated and reconstituted in CH3OH:CHCl3:NH4OH (90:10:1.25, v/v/v) and the lipids were analyzed by electrospray ionization tandem mass spectrometry (ESI-MS/MS) on a hybrid quadrupole linear ion trap mass spectrometer (4000 QTRAP system; Applied Biosystems, Foster City, Calif.) equipped with a robotic nanoflow/ion source (Advion Biosciences). The system was operated in the MRM mode for quantification of individual species. Data were expressed as fold change relative to the control samples (untreated cells or matched normal tissue) and were presented as heatmaps using the Heatmap Builder software (Clifton Watt, Stanford University, USA).
structure (smiles),measurement,setting,value
COc1cccc2c1C(=O)c1c(O)c3c(c(O)c1C2=O)C[C@@](O)(C(=O)CO)C[C@@H]3O[C@H]1C[C@H](N)[C@H](O)[C@H](C)O1 [doxorubicin],cell death,"LNCaP cells [1]; standard culture, doxorubicin 4 μM last 24 hr",8%
CCCCCCCCCCCCCCCC(=O)O [palmitic acid],effect on soraphen/H2O2-induced increase in lipid peroxidation products,"LNCaP cells [2]; soraphen 100 nM 72 hr, 200 μM H2O2 last 2 hr, exogenous palmitic acid 75 μM",largely reversed these changes
same,effect on soraphen-sensitized H2O2-induced cell death (rescue),"LNCaP cells [1]; soraphen 100 nM 72 hr, 300 μM H2O2 last 24 hr, fatty acid supplement 75 μM",counteracted
same,effect on soraphen/doxorubicin-induced cell death,"LNCaP cells [1]; soraphen 100 nM, doxorubicin 4 μM, palmitic acid 75 μM",largely rescued the cells from death
same,effect on soraphen-induced doxorubicin accumulation,LNCaP cells [3]; palmitic acid 75 μM,counteracted the effects of soraphen
same,effect on soraphen-induced increase of CD36-bound LNCaP cells,"[4]; soraphen 100 nM 72 hr, 300 μM H2O2 30 min, exogenous palmitic acid 75 μM",counteracted these effects
"CO[C@H]1CCCC[C@@H](c2ccccc2)OC(=O)[C@@H](C)[C@@]2(O)O[C@H]([C@@H](C)[C@H](O)[C@H]2OC)[C@@H](C)/C=C/[C@H]1OC [soraphen, Soraphen A]",inhibition of fatty acid synthesis / de novo lipogenesis by 2-14C-acetate incorporation,[5],"Inhibition of fatty acid synthesis, and as such de novo lipogenesis was confirmed"
same,levels of lipid peroxidation products,"LNCaP cells [2]; soraphen 100 nM, 72 hr",significantly increased
same,cell death in response to H2O2,"LNCaP cells [1]; soraphen 100 nM 72 hr, 300 μM H2O2 last 24 hr",markedly increased
same,cell death,LNCaP cells [1]; soraphen alone 100 nM 72 hr,up to 20%
same,intracellular accumulation of doxorubicin,LNCaP cells [3],significant increase
same,increase in the flip-flop rate of doxorubicin,LNCaP cells [6],six-fold
same,number of CD36-bound LNCaP cells,[4]; soraphen 100 nM 72 hr followed by 300 μM H2O2 for 30 min,substantially increased
same,decrease of PC species with one degree of unsaturation,LNCaP cells [7],up to four-fold
same,effect on PC species with two unsaturations,LNCaP cells [7],ambiguous or minor net effect
same,increase of PC species with more unsaturations (>three),LNCaP cells [7],up to eight-fold
